How the values were obtained:
[1] = Bioavailability test in vivo in mice (pharmacokinetics, iv and intragastric); design: species or system ICR mice
Description: 404.6 μL of DMSO was added to the compound powder of the present disclosure until the compound was completely dissolved, and 50 mg/mL mother liquor was prepared in a clarified state.
The compound of the present disclosure: 24 μL of mother liquor was accurately measured, diluted to 4 mL according to the ratio of 0.9% normal saline:PEG400=8:2, the preparation concentration was 0.3 mg/mL, the solution was in a clarified state, and it was used as intravenous administration solution. In addition, 80 μL mother liquor was accurately measured, and 0.5% CMC-Na was added to 8 mL to grind it into a uniform suspension with a concentration of 0.5 mg/mL, which was used as intragastric administration solution.
Intravenous group: 24 ICR mice, 20±2 g, were given the intravenous administration solution of the compound of the present disclosure by intravenous injection, with the volume of 10 mL/kg, with the dose of 3 mg/kg, the blood was taken from the fundus venous plexus of mice, 2, 5, 15, 30, 60, 90, 120, 240, 360, 480, 600 and 1440 minutes before and after administration.
Intragastric group: 24 ICR mice, 20±2 g, were given the intragastric administration solution of the compound of the present disclosure by intragastric injection, with the volume of 20 mL/kg, with the dose of 10 mg/kg, the blood was taken from the fundus venous plexus of mice, 5, 15, 30, 60, 90, 120, 240, 360, 480, 600 and 1440 minutes before and after administration.
Blood sample was centrifuged at 8000 rpm for 5 min, and the plasma was stored in a centrifuge tube at −20° C. for later use.
300 μL of acetonitrile containing internal standard (Propranolol, 25 ng/mL) was added to 50 μL of plasma samples to precipitate protein, vortexed for 10 min, 6000 g, 4° C., centrifuged for 10 min; the supernatant before intravenous injection for 1 hour was taken, diluted 10 times with acetonitrile containing internal standard, the rest supernatant was kept undiluted, centrifuged for 10 min again at 6000 g, 4° C., and the supernatant was taken and then injected into a 96-well plate.
(§1) Dose; peak concentration: Cmax; peak time: Tmax; area under the drug-time curve from AUClast 0 to time t; half-life: T1/2; mean retention time: MRT; clearance: Cl; apparent distribution volume: Vz; steady-state distributed volume: Vss; absolute bioavailability: F.
The pharmacokinetic parameters of the compound in mice after intravenous injection or intragastric administration were shown in Table 4 and Table 5 below.

[2] = Bioavailability test in vivo in cynomolgus monkey (pharmacokinetics, IV and PO); details: cynomolgus monkeys
Description: Twelve male Non-Naïve cynomolgus monkeys were purchased from GuangxiGuidong Primate Development Experiment Co. LTD.
54.31 mg of I-8-1 was accurately weighed, and 1.08 mL of DMSO was added, then the mixture was vortexed for 1 min, sonicated for 15 min, and then diluted to 36 mL according to the ratio of 10% HP-β-cyclodextrin (prepared by normal saline): PEG=8:2, vortexed for 1 min. A colorless clarified administration solution (the pH value was about 7) at a concentration of 1.5 mg/mL was prepared for intravenous administration to Group 1.
300.9 mg of I-8-1 was accurately weighed, and 75 mL of 0.5% CMC-Na was added, the mixture was fully ground and stirred for 5 min. A white suspension (the pH value was about 7) at a concentration of 4 mg/mL was prepared for oral administration to Group 2.
54.05 mg of AZD1775 was accurately weighed, and 1.08 mL of DMSO was added, then he mixture was vortexed for 1 min, sonicated for 15 min, and then diluted to 36 mL according to the ratio of 10%-D-cyclodextrin (prepared by normal saline): PEG=8:2, vortexed for 1 min. A yellow clarified administration solution (the pH value was about 7) at a concentration of 1.5 mg/mL was prepared for intravenous administration to Group 3.
300.7 mg of AZD1775 was accurately weighed, and 75 mL of 0.5% CMC-Na was added, the mixture was fully ground and stirred for 5 min. A yellow suspension (the pH value was about 7) at a concentration of 4 mg/mL was prepared for oral administration to Group 4.
Before administration, all animals were fasted overnight (approximately 12 hours) and fed as required and administered according to the table below.
Intravenous group: before administration (0 h), 0.033 h, 0.083 h, 0.25 h, 0.5 h, 1 h, 1.5 h, 2 h, 4 h, 6 h, 8 h, 12 h, 24 h after administration.
Oral group: before administration (0 h), 0.083 h, 0.25 h, 0.5 h, […], 2 h, 4 h, 6 h, 8 h, 12 h, 24 h after administration.
Blood samples were collected by puncture through lower limb vein or other suitable blood vessels at 1 mL/time point (3 mL of blood samples were collected from each animal before administration), anticoagulated with heparin sodium, and placed on ice after collection. Plasma was separated at 2200 g/min, 10 min, 2-8° C., plasma samples were stored in a −80° C. refrigerator before being transferred to the client. Plasma samples are stored in dry ice and transferred to the client. The final treatment of the sample will be recorded in the experimental record.
300 μL of acetonitrile was added to 50 μL of plasma samples containing internal standard (Propranolol, 25 ng/mL) to precipitate protein, vortexed for 10 min, centrifuged at 6000 g for 10 min, after I-8-1&AZD1775 intravenous injection group was diluted 10 times with internal standard acetonitrile (Propranolol, 25 ng/mL) at the time point before 1 hour, the remaining supernatant was not diluted, centrifuged again at 6000 g at 4° C. for 10 min, and the supernatant was taken and injected into a 96 well plate.
as §1
The pharmacokinetic parameters of the compound in cynomolgus monkeys after intravenous injection or intragastric administration were shown in Table 6 below.

[3] = ICR, mouse, plasma, iv, 3 mg/kg
[4] = ICR, mouse, plasma, po (intragastric), 10 mg/kg
[5] = male, cynomolgus monkey, plasma, iv, 3 mg/kg
[6] = male, cynomolgus monkey, plasma, po, 20 mg/kg, fasted

C=CCn1c(=O)c2cnc(Nc3ccc(C4CCC(N5CCC5)CC4)cc3)nc2n1-c1cccc(C(C)(C)O)n1 (single isomer, unassigned) [Compound I-8-1]
Cmax [1, 3]: 644 ± 132 ng/mL
MRT [1, 3]: 1.11 ± 0.08 h
Tmax [1, 3]: 0.03 h
clearance [1, 3]: 155 mL/min/kg
half-life [1, 3]: 1.22 ± 0.1 h
Vd ([1]; ICR, mouse, plasma, iv, 3 mg/kg, iv, 3 mg/kg, read-out: Vss): 10.3 ± 0.86 L/kg
Vd ([1]; ICR, mouse, plasma, iv, 3 mg/kg, iv, 3 mg/kg, read-out: Vz): 16.3 ± 2.48 L/kg
bioavailability ([1]; ICR, mouse, plasma, po 10 mg/kg vs iv 3 mg/kg, read-out: F (absolute bioavailability)): 60.3%
Cmax [1, 4]: 58.1 ± 7.09 ng/mL
MRT [1, 4]: 3.47 ± 1.22 h
Tmax [1, 4]: 1.67 ± 0.29 h
half-life [1, 4]: 1.57 ± 0.39 h
AUClast ([1]; iv, 3 mg/kg): 317.5 ± 34.41 (h) (ng/mL)
AUClast ([1]; po (intragastric), 10 mg/kg): 637.9 ± 302.3 (h) (ng/mL)
AUCextra ([2]; iv, 3 mg/kg): 16.11 ± 9.34 (h)*(ng/mL)
AUClast ([2]; iv, 3 mg/kg): 957.6 ± 126.3 (h)*(ng/mL)
AUCtot ([2]; iv, 3 mg/kg): 973.8 ± 131.4 (h)*(ng/mL)
thalf ([2]; iv, 3 mg/kg): 2.05 ± 1.24 h
AUCextra ([2]; po, 20 mg/kg, fasted): 187.03 ± 166.00 (h)*(ng/mL)
AUClast ([2]; po, 20 mg/kg, fasted): 6548 ± 3043 (h)*(ng/mL)
AUCtot ([2]; po, 20 mg/kg, fasted): 6735 ± 3201 (h)*(ng/mL)
thalf ([2]; po, 20 mg/kg, fasted): 3.71 ± 0.72 h
Vd ([2]; male, cynomolgus monkey, plasma, iv, 3 mg/kg, iv, 3 mg/kg, read-out: Vss): 9.67 ± 1.32 L/kg
Vd ([2]; male, cynomolgus monkey, plasma, iv, 3 mg/kg, iv, 3 mg/kg, read-out: Vz): 8.78 ± 4.22 L/kg
Cmax [2, 5]: 838 ± 190 ng/mL
MRT [2, 5]: 3.17 ± 0.82 h
Tmax [2, 5]: 0.03 h
clearance [2, 5]: 52 mL/min/kg
bioavailability ([2]; male, cynomolgus monkey, plasma, po 20 mg/kg vs iv 3 mg/kg, read-out: BA (absolute bioavailability)): 103%
Cmax [2, 6]: 721 ± 260 ng/mL
MRT [2, 6]: 7.91 ± 2 h
Tmax [2, 6]: 4.5 ± 2.6 h

Source: patent US12612408B2, “Pyrazolone-fused pyrimidine compound, preparation method for same and applications thereof” (SHANGHAI PHARMACEUTICALS HOLDING CO., LTD., priority 2019, dated 2026)
